Molecular target: acetylcholinesterase (AChE) (Electrophorus electricus, UniProt O42275)
Assay: colorimetric AChE inhibition assay
Assay type: biochemical

acetylcholinesterase (AChE), sequence (O42275 24-633): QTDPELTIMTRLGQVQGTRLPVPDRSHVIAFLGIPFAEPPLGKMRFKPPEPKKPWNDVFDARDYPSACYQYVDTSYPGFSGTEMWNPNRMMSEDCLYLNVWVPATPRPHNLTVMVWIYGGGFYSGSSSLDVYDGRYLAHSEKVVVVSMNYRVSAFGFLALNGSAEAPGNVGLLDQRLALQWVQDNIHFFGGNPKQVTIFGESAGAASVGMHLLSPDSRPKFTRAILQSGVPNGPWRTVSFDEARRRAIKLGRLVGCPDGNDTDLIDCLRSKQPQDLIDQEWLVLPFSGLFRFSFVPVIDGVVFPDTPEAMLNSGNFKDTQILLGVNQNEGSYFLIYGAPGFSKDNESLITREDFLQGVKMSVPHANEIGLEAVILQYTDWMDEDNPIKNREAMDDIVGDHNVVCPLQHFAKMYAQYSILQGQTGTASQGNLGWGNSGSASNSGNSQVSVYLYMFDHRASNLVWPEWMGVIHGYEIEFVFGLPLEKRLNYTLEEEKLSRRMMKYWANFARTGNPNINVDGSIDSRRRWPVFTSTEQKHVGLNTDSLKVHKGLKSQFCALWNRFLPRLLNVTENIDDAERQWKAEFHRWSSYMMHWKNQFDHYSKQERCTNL

How did the IC50 turn out when `O=C([C@@H](F)[C@H](F)CCc1ccc2c(c1)OCO2)N1CCCCC1` [compound 2, analog 2] was run?
Its IC50 is 51.7 µM.
